In patent publication US10435361B2, “Kinase inhibitors” (Topivert Pharma Limited, priority 2013, dated 2019):
Read-outs that look alike come from different tables or passages of the source.

Tests used:
[1] = test system: PBMCs; assay: IL-2 and IFN gamma release in CD3/CD28 stimulated PBMC cells; format: cell-based; settings: Homo sapiens, assay (c)
Summary of the method: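 Healthy-donor PBMCs, density-gradient isolated, stimulated on plates pre-coated with anti-CD3 (0.3 μg/mL) and anti-CD28 (3 μg/mL) antibodies, with compound, for 3 days under standard culture conditions. IC50 derived from the dose-response curve.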

[2] = test system: HT29 cells; assay: IL-1β-induced IL-8 release in HT29 cells; format: cell-based; settings: Homo sapiens, HT-29, assay (d), read-out: IC50 Values for Inhibition of Cytokine Release HT29 cells IL-8
Procedure: HT29 cells, a human colon adenocarcinoma cell line, are plated in a 96 well plate (24 hr) and pre-treated with compounds at the desired concentration for 2 hours before addition of 5 ng/mL of IL-1β (Abcam) for 24 hours. Supernatants are harvested for IL-8 quantification by Sandwich ELISA (Duo-set, R&D System). The IC50 is determined from the dose response curve.

[3] = test system: Lewis rats; assay: Endotoxin-induced uveitis in rats; format: in vivo; settings: rats treated with intravitreal endotoxin LPS
Procedure: Male, Lewis rats (6-8 weeks old, Charles River UK Limited) are housed in cages of 3 at 19-21° C. with a 12 h light/dark cycle (07:00/19:00) and fed a standard diet of rodent chow and water ad libitum. Non-fasted rats are weighed, individually identified on the tail with a permanent marker, and receive a single intravitreal administration into the right vitreous humor (5 μL dose volume) of 100 ng/animal of LPS (Escherichia coli 0111:B4 prepared in PBS, Sigma Aldrich, UK) using a 32-gauge needle. Untreated rats are injected with PBS. Test compound, dexamethasone (Dex) or vehicle (20% hydroxypropyl-β-cyclodextrin, 0.1% HPMC, 0.01% Benzalkonium chloride, 0.05% EDTA, 0.7% NaCl in deionised water) are administered by the topical route onto the right eye (10 μL) of animals 30 minutes prior to LPS, at the time of LPS administration, and 1, 2 and 4 hours post LPS administration. Before administration, the solution or suspension to be administered is agitated for 5 minutes to ensure a uniform suspension. 6 hours after LPS dosing, animals are euthanized by overdose with pentobarbitone (i.v.). Following euthanasia, the right eye of each animal is enucleated and dissected into front (anterior) and back (posterior) sections around the lens. Each section is weighed and homogenised in 500 μL of sterile phosphate buffered saline followed by 20 minutes centrifugation at 12000 rpm at 4° C. The resulting supernatant is divided into 3 aliquots and stored at −80° C. until subsequent cytokine analysis by R&D DuoSet ELISA.

[4] = test system: d-U937 cells; assay: LPS-induced TNFα/IL-8 release in d-U937 cells; format: cell-based; settings: Homo sapiens, dU937, assay (aa)
Procedure: U937 cells, a human monocytic cell line, are differentiated to macrophage-type cells by incubation with phorbol myristate acetate (PMA; 100 ng/mL) for 48 to 72 hr. Cells are pre-incubated with final concentrations of test compound for 2 hr and are then stimulated with 0.1 μg/mL of LPS (from E. Coli: 0111:B4, Sigma) for 4 hr. The supernatant is collected for determination of TNFα and IL-8 concentrations by sandwich ELISA (Duo-set, R&D systems). […] The relative 50% effective concentration (REC50) is determined from the resultant concentration-response curve. The inhibition of IL-8 production is calculated at each concentration of test compound by comparison with vehicle control.

[5] = Plasma pharmacokinetics and total colon tissue distribution in mice, single oral administration; format: in vivo, C57BL/6 mice; settings: male, C57BL/6, mouse, 5 mg/kg, read-out: Median plasma concentration
Procedure: Studies were conducted by Sai Life Sciences (Hinjewadi, Pune, India) to investigate the plasma pharmacokinetics and total colon tissue distribution of compounds of the invention. In particular, pharmacokinetic studies were carried out in: • male C57BL/6 mice, following a single oral administration; and • male Wistar rats following a single intravenous or oral administration.

[6] = Analysis of metabolites after incubation with hepatocytes; format: in vitro ADME; settings: rat, Cynomolgus macaque, human hepatocytes
Procedure: Studies were conducted by BioFocus (Saffron Walden, UK) to determine the metabolic fate of the compound of Example 16 following incubation with rat, Cynomolgus macaque or human hepatocytes.
Separate incubations (n=3) of the compound of Example 16 (10 μM initial concentration) or DMSO control, were performed with cryopreserved hepatocytes from each species (0.5 million cell/mL) at 37° C. for 0, 60 and 90 minutes before termination of reactions and compound extraction with acetonitrile. Sample replicates were pooled prior to analysis.
Potential metabolites were identified using time-of-flight (TOF) and triple quadruple (TQ) mass spectrometers.

[7] = read-out: IC50 Values for Inhibition of Cytokine Release PBMCs IFNγ
[8] = read-out: IC50 Values for Inhibition of Cytokine Release PBMCs IL-2

Structure (SMILES) | IC50 [1, 7] [nM] | IC50 [1, 8] [nM] | IC50 [2] [nM] | cytokine levels in the anterior and posterior segments of the eyes [3] | IC50 ([4]; method: relative to 10 μg/mL BIRB796 (REC50), read-out: IC50 Values for Inhibition of Cytokine Release dU937 cells TNFα) [nM] | IC50 ([4]; read-out: IC50 Values for Inhibition of Cytokine Release dU937 cells IL-8) [nM] | concentration at 1 h [5] [ng/mL] | concentration at 2 h [5] [ng/mL] | concentration at 4 h [5] [ng/mL] | concentration at 6 h [5] [ng/mL] | concentration at 8 h [5] [ng/mL] | concentration at 12 h [5] [ng/mL] | concentration at 24 h [5] [ng/mL] | number of metabolites formed in hepatocytes ([6]; 10 μM, 0, 60 and 90 minutes) | metabolism at the naphthalene moiety ([6]; 10 μM)
COc1cc(Nc2cc(Oc3ccc(NC(=O)Nc4cc(C(C)(C)C)cc(NS(C)(=O)=O)c4OC)c4ccccc34)ccn2)cc(C(=O)NCCN2CCOCC2)c1 [Example 27, 3-((4-((4-(3-(5-(tert-Butyl)-2-methoxy-3-(methylsulfonamido)phenyl)ureido)naphthalen-1-yl)oxy)pyridin-2-yl)amino)-5-methoxy-N-(2-morpholinoethyl)benzamide] | 11 | 46.3 | 8.3 | significantly reduced |  |  |  |  |  |  |  |  |  |  | 
COCCOCCOCCOc1cc(Nc2nccc(Oc3ccc(NC(=O)Nc4cc(C(C)(C)C)cc(NS(C)(=O)=O)c4OC)c4ccccc34)n2)cc(OC)c1 [Example 4, N-(5-(tert-Butyl)-2-methoxy-3-(3-(4-((2-((3-methoxy-5-(2-(2-(2-methoxyethoxy)ethoxy)-ethoxy)phenyl)amino)pyrimidin-4-yl)oxy)naphthalen-1-yl)ureido)phenyl)methanesulfonamide] | 4.2 | 40.5 | 4.9 | significantly reduced | 1 | 0.8 |  |  |  |  |  |  |  |  | 
C#Cc1cc(Nc2nccc(Oc3ccc(NC(=O)Nc4cc(C(C)(C)C)cc(NS(C)(=O)=O)c4OC)c4ccccc34)n2)cc(C(=O)NCCOCCOCCOC)c1 [Example 16, 3-((4-((4-(3-(5-(tert-Butyl)-2-methoxy-3-(methylsulfonamido)phenyl)ureido)naphthalen-1-yl)oxy)pyrimidin-2-yl)amino)-5-ethynyl-N-(2-(2-(2-methoxyethoxy)ethoxy)ethyl)benzamide] | 7.3 | 74 | 8 |  |  |  | 0 | 0 | 0 | 0 | 0 | 0 | 0 | 9 | no products were noted that could be connected to metabolism at the naphthalene moiety
